The target of the test is T1, KCNK18 (Rattus norvegicus, UniProt Q6Q1P3).
T1 sequence (Q6Q1P3 1-405): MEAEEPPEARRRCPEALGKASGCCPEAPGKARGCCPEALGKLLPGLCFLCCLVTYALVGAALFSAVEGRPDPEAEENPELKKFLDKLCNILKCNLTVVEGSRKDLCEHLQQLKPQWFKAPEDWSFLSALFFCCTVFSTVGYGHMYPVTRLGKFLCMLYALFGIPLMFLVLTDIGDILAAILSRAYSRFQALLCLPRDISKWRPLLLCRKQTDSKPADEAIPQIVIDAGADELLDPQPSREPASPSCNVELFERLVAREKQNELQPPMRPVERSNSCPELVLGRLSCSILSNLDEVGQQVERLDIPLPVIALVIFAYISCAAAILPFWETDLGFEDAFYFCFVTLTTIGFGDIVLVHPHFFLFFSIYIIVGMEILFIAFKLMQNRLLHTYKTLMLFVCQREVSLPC
Kind of test: whole-cell patch clamp of transfected HEK293 cells, dose-response; loss of effect on F375 swap and F167A. The format is cell-based. For orientation: The patch-clamp technique gives a direct electrical read-out from membranes.

One compound from publication PMC9862588, “The Bi-Functional Paxilline Enriched in Skin Secretion of Tree Frogs (Hyla japonica) Targets the KCNK18 and BKCa Channels” (Toxins, 2023) can be followed below.

With `CC(C)(O)[C@H]1O[C@H]2CC[C@@]3(C)[C@@](O)(CC[C@H]4Cc5c([nH]c6ccccc56)[C@@]43C)C2=CC1=O` [PAX, Paxilline], the IC50 (usually the point on the concentration scale where inhibition reaches its midpoint) amounted to 4.13 ± 0.04 µM.
